Measured values reported in article PMC8536644, “Enigmatic mechanism of the N-vinylpyrrolidone hepatocarcinogenicity in the rat” (Archives of Toxicology, 2021).
Where “and” joins values, the source holds several entries; their conditions need not be identical. Equal values may be shown once. Read-outs that look alike come from different tables or passages of the source.

Tests used:
rat lung cells = assay: Comet assay, conventional (no FPG), lung; conditions: for Hedgehogs/100 cells (mean ± SD) / TI (%) (mean ± SD) / TI (%), mean of medians from 2 slides: lung, no FPG, 5 days; for TI (%), mean of medians from 2 slides: individual animals
Method: (§1) Animals were anesthetized by 3.5% isoflurane (approximately 3 min, evaporator Dräger Vapor 19.3) and then killed by cervical dislocation. The liver was removed and its left lateral lobe used for the Comet assay. The remainder of the liver was washed in saline and then in two aliquots shock frozen in liquid nitrogen and stored at − 80 °C for later examinations. Subsequently the lung was removed from the dead animal. Its left lobe was used for the Comet assay and the remainder treated as described above for the liver. Thereafter the femora were removed for the preparation of the bone marrow.
(§2) The Comet assay was performed under alkaline conditions according to the principles described by Singh et al. ([1988]) and Tice et al. ([2000]).
(§3) Liver and lung cells were obtained essentially as described by Hartmann et al. ([2004]) and by the Japanese Center for the Validation of Alternative Methods (JaCVAM [2009]). Single cells were obtained within 1 h after killing of the animals in order to minimize DNA damage during the preparation.
(§4) The organ parts (see above) were washed in mincing buffer (50 mM EDTA in HBSS [without Ca^2+ and Mg^2+] pH 7.5: DMSO 9:1 (v/v), the latter added shortly before use, stored at 4 °C), cut into 1 to 2-mm pieces in ice-cold mincing buffer and transferred to a cell sieve with 70-µm pores. The viability of the cell suspension was evaluated by the Trypan Blue Assay (Strober [2001]).
(§5) 100 µL of the obtained cell suspension was mixed at 37 °C with 900 µL Low Melting Agarose (LMA) (0.7% agarose in phosphate-buffered saline [PBS] [Biochrom, Berlin, Germany] without Ca^2+ and Mg^2+). 100 µL of this mixture was transferred to a slide, which had been coated with Normal Melting Agarose (NMA) (0.6% agarose in PBS without Ca^2+ and Mg^2+). The slides were protected with a cover slip and the agarose was hardened at approximately 4 °C. The cover slips were then removed and the slides put over night at 4 °C into lysis buffer (2.5 M NaCl, 125 mM NaOH, 127 mM EDTA, 10 mM Tris/NaOH, pH 10; 1% Triton X-100 and 10% DMSO (v/v), the latter two added before use) in order to lyse the cell membrane, nuclear membrane and remove the histone.
(§6) The then following procedures were performed in a shaded room to minimize UV-mediated DNA damage during the procedures.
(§7) Remaining lysis buffer or FPG buffer was removed by immersing/washing the slides in PBS (without Ca^2+ and Mg^2+).
The slides were then placed into the electrophoresis chamber, which was cooled and protected from light. Slides were covered with electrophoresis buffer (0.3 M NaOH, 1 mM EDTA, pH > 13) carefully avoiding air bubbles. The DNA was allowed to unwind (20 min). Thereafter the electrophoresis was started (25 V, 300 mA, […], 30 min). The slides were then washed (2 times 5 min) in neutralization buffer (0.4 M Tris/HCl, pH 7.5), dehydrated and fixed in 100% ethanol (1 min), dried at room temperature overnight and stored at room temperature protected from dust.
Quantitative evaluation of the Comet assays was performed by fluorescence microscopy after DNA staining with ethidium bromide.

rat liver cells = assay: Comet assay in presence of FPG, liver; conditions: liver, with FPG, 5 days; for TI (%), mean of medians from 2 slides: individual animals
Method: as §1, §2, §3, §4, §5, §6
Those slides which were destined to be treated with the DNA base excision repair enzyme FPG (Sigma Aldrich, Steinheim, Germany) were washed (3 times for 5 min) with FPG buffer (0.04 M HEPES, 0.5 mM EDTA, 0.1 M KCl, pH 8; add shortly before use bovine serum albumin [BSA] to a final concentration of 0.02%). Subsequently 50 µL FPG-enzyme-buffer (prepared shortly prior to use by 30-fold dilution of the following suspension in FPG buffer: 7 µL FPG-enzyme (14 U) and 70 µL glycerol in 623 µL FPG-Puffer, stored at − 80 °C) was pipetted on the slide which was covered with a cover slide and incubated for 30 min at 37 °C while being placed on a humid filter paper. After hardening of the agarose cover slips were removed.
as §7

[1] = Trypan Blue viability of the single cell suspension, lung; type: in vivo, rat; conditions: rat, inhaled

C=CN1CCCC1=O [NVP, N-vinylpyrrolidone]
Hedgehogs (rat lung cells; NVP-treated lung cells, with or without FPG): 1–7%
Hedgehogs/100 cells (mean ± SD) (rat lung cells; female, 5 ppm inhalation): 2 ± 1 /100 cells
TI (%) (mean ± SD) (rat lung cells; female, 5 ppm inhalation): 1.2 ± 0.34%
TI (%), mean of medians from 2 slides (rat lung cells; female, 5 ppm inhalation): 0.7% and 1.2% and 1.5% and 1.6% and 1.3%
Hedgehogs/100 cells (mean ± SD) (rat lung cells; female, 10 ppm inhalation): 2 ± 2 /100 cells
TI (%), mean of medians from 2 slides (rat lung cells; female, 10 ppm inhalation): 0.4% and 0.9% and 0.5% and 0.6%
Hedgehogs/100 cells (mean ± SD) (rat lung cells; female, 20 ppm inhalation): 2 ± 3 /100 cells
TI (%) (mean ± SD) (rat lung cells; female, 20 ppm inhalation): 1.0 ± 0.32%
TI (%), mean of medians from 2 slides (rat lung cells; female, 20 ppm inhalation): 0.7% and 0.9% and 1.2% and 1.0% and 1.6%
Hedgehogs/100 cells (mean ± SD) (rat lung cells; male, 5 ppm inhalation): 4 ± 3 /100 cells
TI (%), mean of medians from 2 slides (rat lung cells; male, 5 ppm inhalation): 1.8% and 0.6% and 0.7% and 0.8% and 1.9%
Hedgehogs/100 cells (mean ± SD) (rat lung cells; male, 10 ppm inhalation): 7 ± 5 /100 cells
TI (%) (mean ± SD) (rat lung cells; male, 10 ppm inhalation): 1.8 ± 1.94%
TI (%), mean of medians from 2 slides (rat lung cells; male, 10 ppm inhalation): 5.7% and 1.3% and 1.2% and 0.7% and 1.0% and 1.1%
Hedgehogs/100 cells (mean ± SD) (rat lung cells; male, 20 ppm inhalation): 3 ± 1 /100 cells
TI (%) (mean ± SD) (rat lung cells; male, 20 ppm inhalation): 0.6 ± 0.28%
TI (%), mean of medians from 2 slides (rat lung cells; male, 20 ppm inhalation): 0.4% and 0.9% and 0.6% and 0.3%
Hedgehogs/100 cells (mean ± SD) (rat liver cells; female, 5 ppm inhalation): 4 ± 2 /100 cells
TI (%), mean of medians from 2 slides (rat liver cells; female, 5 ppm inhalation): 6.5% and 8.4% and 9.0% and 9.3% and 5.6% and 7.1%
Hedgehogs/100 cells (mean ± SD) (rat liver cells; female, 10 ppm inhalation): 3 ± 2 /100 cells
TI (%) (mean ± SD) (rat liver cells; female, 10 ppm inhalation): 7.9 ± 2.74%
TI (%), mean of medians from 2 slides (rat liver cells; female, 10 ppm inhalation): 5.5% and 10.7% and 5.6% and 5.3% and 9.4% and 11.0%
Hedgehogs/100 cells (mean ± SD) (rat liver cells; female, 20 ppm inhalation): 4 ± 2 /100 cells
TI (%) (mean ± SD) (rat liver cells; female, 20 ppm inhalation): 7.0 ± 1.97%
TI (%), mean of medians from 2 slides (rat liver cells; female, 20 ppm inhalation): 9.2% and 5.2% and 8.3% and 6.3% and 8.6% and 4.4%
Hedgehogs/100 cells (mean ± SD) (rat liver cells; male, 5 ppm inhalation): 1 ± 1 /100 cells
TI (%) (mean ± SD) (rat liver cells; male, 5 ppm inhalation): 5.3 ± 1.09%
TI (%), mean of medians from 2 slides (rat liver cells; male, 5 ppm inhalation): 4.3% and 5.8% and 5.2% and 4.0% and 7.0% and 5.7%
Hedgehogs/100 cells (mean ± SD) (rat liver cells; male, 10 ppm inhalation): 2 ± 1 /100 cells
TI (%) (mean ± SD) (rat liver cells; male, 10 ppm inhalation): 6.1 ± 1.67%
TI (%), mean of medians from 2 slides (rat liver cells; male, 10 ppm inhalation): 8.3% and 7.5% and 3.7% and 4.9% and 6.5% and 5.8%
Hedgehogs/100 cells (mean ± SD) (rat liver cells; male, 20 ppm inhalation): 2 ± 1 /100 cells
TI (%) (mean ± SD) (rat liver cells; male, 20 ppm inhalation): 5.0 ± 1.09%
TI (%), mean of medians from 2 slides (rat liver cells; male, 20 ppm inhalation): 6.8% and 4.4% and 5.0% and 4.7% and 3.6% and 5.6%
viability at 5 days ([1]; both sexes, Wistar Crl:WI (Han), lung single cell suspension, lung cells, NVP-exposed, read-out: Viability, range of the individual animals): 93 to 100%
viability at 5 days ([1]; female, Wistar, lung, 5 ppm, lung, female, Comet with FPG (Table 11), 5 ppm inhalation, 5 days, individual animals, read-out: Individual viability (%)): 99%
viability at 5 days ([1]; female, Wistar, lung, 5 ppm, lung, female, Comet with FPG (Table 11), 5 ppm inhalation, 5 days, read-out: Viability (%) (mean ± SD)): 99 ± 1%
viability at 5 days ([1]; female, Wistar, lung, 5 ppm, lung, female, no FPG, 5 ppm inhalation, 5 days, individual animals, read-out: Individual viability (%)): 99%
viability at 5 days ([1]; female, Wistar, lung, 5 ppm, lung, female, no FPG, 5 ppm inhalation, 5 days, read-out: Viability (%) (mean ± SD)): 99 ± 1%
viability at 5 days ([1]; female, Wistar, lung, 10 ppm, lung, female, Comet with FPG (Table 11), 10 ppm inhalation, 5 days, individual animals, read-out: Individual viability (%)): 98%
viability at 5 days ([1]; female, Wistar, lung, 10 ppm, lung, female, Comet with FPG (Table 11), 10 ppm inhalation, 5 days, read-out: Viability (%) (mean ± SD)): 98 ± 1%
viability at 5 days ([1]; female, Wistar, lung, 10 ppm, lung, female, no FPG, 10 ppm inhalation, 5 days, individual animals, read-out: Individual viability (%)): 98%
viability at 5 days ([1]; female, Wistar, lung, 10 ppm, lung, female, no FPG, 10 ppm inhalation, 5 days, read-out: Viability (%) (mean ± SD)): 98 ± 1%
viability at 5 days ([1]; female, Wistar, lung, 20 ppm, lung, female, Comet with FPG (Table 11), 20 ppm inhalation, 5 days, individual animals, read-out: Individual viability (%)): 98%
